Source: ChEMBL document CHEMBL1201862, “PubChem BioAssay data set” (2004)
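Where inhibition never reached the appropriate level, the endpoint shown equals the highest concentration tested. Otherwise, values were interpolated linearly from a five-concentration, 48-hour dose response in 96-well plates. GI50 marks 50% less growth.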 Calls of active or inactive are those of the source. No stated cut-off is given here; in the data, active = GI50 up to about 1.1 µM and inactive = higher.

Experiments:
Test in all cases: NCI anticancer screen, dose series, 48 h
[1] = tested on: CCRF-CEM
[2] = tested on: OVCAR-5
[3] = tested on: UACC-62
[4] = tested on: SK-MEL-2
[5] = tested on: HCC 2998
[6] = tested on: SF-539
[7] = tested on: HOP-62
[8] = tested on: MDA-MB-435
[9] = tested on: U-251
[10] = tested on: UO-31
[11] = tested on: NCI-H226
[12] = tested on: NCI-H460
[13] = tested on: HCT-15
[14] = tested on: SNB-75
[15] = tested on: ACHN
[16] = tested on: SK-MEL-5
[17] = tested on: OVCAR-3
[18] = tested on: SK-OV-3
[19] = tested on: BT-549

Compound	GI50 [1]	GI50 [2]	GI50 [3]	GI50 [4]	GI50 [5]	GI50 [6]	GI50 [7]	GI50 [8]	GI50 [9]	GI50 [10]	GI50 [11]	GI50 [12]	GI50 [13] [µM]	GI50 [14]	GI50 [15]	GI50 [16]	GI50 [17]	GI50 [18]	GI50 [19]
COc1cc(NCc2ccc3nc(-c4ccccc4)c(N)nc3c2)cc(OC)c1OC	31.6 µM (inactive)	> 100 µM (inactive)	29.4 µM (inactive)	31 µM (inactive)	51.8 µM (inactive)	29.7 µM (inactive)	43.8 µM (inactive)	22.3 µM (inactive)	39.3 µM (inactive)	29.2 µM (inactive)	27.5 µM (inactive)	31.4 µM (inactive)	28.7	19.1 µM (inactive)	29.4 µM (inactive)	15.3 µM (inactive)	25.6 µM (inactive)	42.3 µM (inactive)	
CC1CCCC2(CC[N+](C)(CCC[N+](C)(C)C)CC2)C1 (centres undefined)		> 100 µM (inactive)	> 100 µM (inactive)	> 100 µM (inactive)		> 100 µM (inactive)	> 100 µM (inactive)	> 100 µM (inactive)	> 100 µM (inactive)	> 100 µM (inactive)	> 100 µM (inactive)	> 100 µM (inactive)	> 100	> 100 µM (inactive)	> 100 µM (inactive)	> 100 µM (inactive)	> 100 µM (inactive)	> 100 µM (inactive)	> 100 µM (inactive)
Nc1nncc2[nH]nnc12	11 µM (inactive)	> 100 µM (inactive)	> 100 µM (inactive)	> 100 µM (inactive)		> 100 µM (inactive)	> 100 µM (inactive)	> 100 µM (inactive)	> 100 µM (inactive)	> 100 µM (inactive)	> 100 µM (inactive)	> 100 µM (inactive)	> 100	> 100 µM (inactive)	> 100 µM (inactive)	16.5 µM (inactive)	> 100 µM (inactive)		> 100 µM (inactive)
O=C(/C=C/c1ccc(Oc2cc(C(=O)/C=C/c3ccc(O)cc3)c(O)cc2O)cc1)c1ccc(O)cc1O [RHUSCHALCONE II]	2.51 µM (inactive)	5.27 µM (inactive)	4.62 µM (inactive)	7.6 µM (inactive)		2.43 µM (inactive)	5.38 µM (inactive)	4.15 µM (inactive)	3.89 µM (inactive)	6.3 µM (inactive)		7.89 µM (inactive)	5.97	4.63 µM (inactive)	9.29 µM (inactive)	4.4 µM (inactive)	3.42 µM (inactive)	3.17 µM (inactive)	9.84 µM (inactive)
